Reference: ChEMBL document CHEMBL4834464, “Fragment-based Scaffold Hopping: Identification of Potent, Selective, and Highly Soluble Bromo and Extra Terminal Domain (BET) Second Bromodomain (BD2) Inhibitors” (J Med Chem, 2021)
Values after ≈ are worked out from the molar mass of the structure shown.

Legend:
[1] = Half life in male Wistar Han rat at 0.5 mg/kg, iv and 3 mg/kg, po measured up to 7 hrs by LC-MS/MS analysis; type: ADME, organism-based; details: in vivo
[2] = Intrinsic clearance in dog hepatocytes measured per gram of tissue by LC-MS/MS method; type: ADME, cell-based, Canis lupus familiaris, Hepatocyte
[3] = Volume of distribution at steady state in Beagle dog at 0.5 mg/kg, iv and 1 mg/kg, po measured up to 7 hrs by LC-MS/MS analysis; type: ADME, organism-based, Canis lupus familiaris; details: in vivo, read-out: Vdss
[4] = Oral bioavailability in Beagle dog at 1 mg/kg measured up to 7 hrs by LC-MS/MS analysis; type: ADME, organism-based, Canis lupus familiaris; details: in vivo
[5] = Permeability of compound by AMP assay; type: ADME; details: not told; read-out: permeability
[6] = Solubility of the compound in FaSSIF at pH 6.5 incubated for 16 hrs by HPLC gradient analysis; type: physicochemical; details: for solubility: simulated gi fluid, pH 6.5, 16 h; for solubility at 16 h: FaSSIF, pH 6.5
[7] = Blood clearance in male Wistar Han rat at 0.5 mg/kg, iv and 3 mg/kg, po measured up to 7 hrs by LC-MS/MS analysis; type: ADME, organism-based
[8] = Intrinsic clearance in human hepatocytes measured per gram of tissue incubated for 120 mins by LC-MS/MS method; type: ADME, cell-based, Hepatocyte; details: 2 h
[9] = Oral bioavailability in male Wistar Han rat at 3 mg/kg measured up to 7 hrs by LC-MS/MS analysis; type: ADME, organism-based; details: in vivo
[10] = Distribution coefficient, logD of the compound by chromatography; type: physicochemical; details: octanol/water
[11] = Half life in Beagle dog at 0.5 mg/kg, iv and 1 mg/kg, po measured up to 7 hrs by LC-MS/MS analysis; type: ADME, organism-based, Canis lupus familiaris; details: in vivo
[12] = Intrinsic clearance in Wistar han rat hepatocytes measured per gram of tissue incubated for 60 mins by LC-MS/MS method; type: ADME, cell-based, Hepatocyte; details: 1 h
[13] = Apparent permeability across apical to basolateral side in MDCK cells; type: ADME, cell-based, Canis lupus familiaris; details: dog
[14] = Volume of distribution at steady state in male Wistar Han rat at 0.5 mg/kg, iv and 3 mg/kg, po measured up to 7 hrs by LC-MS/MS analysis; type: ADME, organism-based; details: in vivo, read-out: Vdss
[15] = Blood clearance in Beagle dog at 0.5 mg/kg, iv and 1 mg/kg, po measured up to 7 hrs by LC-MS/MS analysis; type: ADME, organism-based, Canis lupus familiaris
[16] = Solubility of the compound by CLND assay; type: physicochemical
[17] = Half life in male Wistar Han rat at 1 mg/kg, iv and 3 mg/kg, po measured up to 7 hrs by LC-MS/MS analysis; type: ADME, organism-based; details: in vivo
[18] = Blood clearance in male Wistar Han rat at 1 mg/kg, iv and 3 mg/kg, po measured up to 7 hrs by LC-MS/MS analysis; type: ADME, organism-based
[19] = Volume of distribution at steady state in male Wistar Han rat at 1 mg/kg, iv and 3 mg/kg, po measured up to 7 hrs by LC-MS/MS analysis; type: ADME, organism-based; details: in vivo, read-out: Vdss
[20] = Half life in Beagle dog at 0.5 mg/kg, iv and 0.7 mg/kg, po measured up to 7 hrs by LC-MS/MS analysis; type: ADME, organism-based, Canis lupus familiaris; details: in vivo
[21] = Blood clearance in Beagle dog at 0.5 mg/kg, iv and 0.7 mg/kg, po measured up to 7 hrs by LC-MS/MS analysis; type: ADME, organism-based, Canis lupus familiaris
[22] = Oral bioavailability in Beagle dog at 0.7 mg/kg measured up to 7 hrs by LC-MS/MS analysis; type: ADME, organism-based, Canis lupus familiaris; details: in vivo
[23] = Volume of distribution at steady state in Beagle dog at 0.5 mg/kg, iv and 0.7 mg/kg, po measured up to 7 hrs by LC-MS/MS analysis; type: ADME, organism-based, Canis lupus familiaris; details: in vivo, read-out: Vdss
[24] = Kinetic solubility of compound […] using the charged aerosol detector (CAD) analysis; type: physicochemical; details: read-out: Kinetic_solubility
[25] = Blood clearance in male Wistar Han rat measured up to 7 hrs by LC-MS/MS analysis; type: ADME
[26] = Oral bioavailability in male Wistar Han rat measured up to 7 hrs by LC-MS/MS analysis; type: ADME, organism-based; details: in vivo
[27] = Solubility of the compound in FaSSIF at pH 6.5 using crystalline form of sample incubated for 16 hrs by HPLC gradient analysis; type: physicochemical

Row | Compound | CLint [2] | Vd [3] | bioavailability [4] | Papp [5] | CLint [8] | bioavailability [9] | chromatographic logD [10] | half-life [11] | CLint [12] | clearance [15] | solubility kinetic [16] | half-life [17] | clearance [18] | Vd [19] | clearance [25] | also measured
1 | CNC(=O)c1cc(C(=O)N[C@H]2CC[C@H](O)CC2)n([C@@H](C)c2ccccc2)n1 | < 0.7 mL/min/g | 0.9 L/kg | 30% | 8 ×10⁻⁶ cm/s | < 0.5 mL/min/g | 58% | 2.9 | 9 h | 0.9 mL/min/g | 1 mL/min/kg | ≥ 180 µg/mL | – | – | – | – | half-life [1]: 1.3 h; solubility [6]: 366 µg/mL (≈ 988 µM); clearance [7]: 13 mL/min/kg; Papp A→B [13]: 4.1 ×10⁻⁶ cm/s; Vd [14]: 1.1 L/kg
2 | CNC(=O)c1cc(C(=O)N[C@H]2[C@@H]3C[C@@H](O)C[C@@H]32)n([C@@H](C)c2cccc(Cl)c2)n1 | < 0.65 mL/min/g | – | – | 19.7 ×10⁻⁶ cm/s | < 0.45 mL/min/g | 57% | 3.4 | – | 1 mL/min/g | – | – | 2.9 h | 21 mL/min/kg | 2.6 L/kg | – | half-life [20]: 5 h; clearance [21]: 2 mL/min/kg; bioavailability [22]: 58%; Vd [23]: 0.8 L/kg; solubility kinetic [24]: 175 µg/mL (≈ 434 µM)
3 | CNC(=O)c1cc(C(=O)N[C@H]2[C@@H]3COC[C@@H]32)cc2c1O[C@H](CF)[C@H]2c1ccccc1 [GSK973] | – | – | – | 16.5 ×10⁻⁶ cm/s | 3.6 mL/min/g | – | 3.6 | – | – | – | – | – | – | – | 180 mL/min/kg | bioavailability [26]: 48%
4 | CC(=O)Nc1c(F)cc(C(=O)N[C@H]2CC[C@H](O)CC2)cc1O[C@@H](C)c1ccccc1 [GSK046] | – | – | – | – | 2.8 mL/min/g | – | 2.8 | – | – | – | – | – | – | – | 82 mL/min/kg | bioavailability [26]: 31%; solubility kinetic [24]: ≥ 159 µg/mL
5 | CNC(=O)c1cc(C(=O)N[C@H]2CC[C@H](O)CC2)c([C@@H](C)c2ccccc2)o1 | < 0.7 mL/min/g | 0.8 L/kg | 84% | 4.2 ×10⁻⁶ cm/s | < 0.5 mL/min/g | 72% | 2.8 | 5.2 h | 0.8 mL/min/g | 1.9 mL/min/kg | ≥ 184 µg/mL | 1.3 h | 30 mL/min/kg | 2.1 L/kg | – | solubility [6]: 827 µg/mL (≈ 2230 µM); Papp A→B [13]: 4.9 ×10⁻⁶ cm/s
6 | CNC(=O)c1cc(C(=O)N[C@H]2[C@@H]3COC[C@@H]32)c([C@@H](C)c2ccccc2)o1 | < 0.65 mL/min/g | 1.1 L/kg | 100% | 20 ×10⁻⁶ cm/s | < 0.45 mL/min/g | 100% | 4.1 | 5 h | < 0.8 mL/min/g | 2.9 mL/min/kg | ≥ 131 µg/mL | 0.7 h | 55 mL/min/kg | 2.7 L/kg | – | solubility thermodynamic at 16 h [27]: 980 µg/mL (≈ 2770 µM)
7 | CNC(=O)c1cc(C(=O)NC2CC2)cn(Cc2cccc3[nH]ccc23)c1=O | – | – | – | – | 2.9 mL/min/g | – | – | – | – | – | – | – | – | – | 128 mL/min/kg | solubility at 16 h [6]: 17 µg/mL (≈ 46.7 µM)
8 | CNC(=O)c1cc(C(=O)NC2CC2)cn(Cc2ccccc2)c1=O [GSK620] | – | – | – | – | 3.1 mL/min/g | – | – | – | – | – | – | – | – | – | 75 mL/min/kg | solubility at 16 h [6]: 13 µg/mL (≈ 40 µM)
